Reference: ChEMBL document CHEMBL5143601, “Rationalizing the binding and α subtype selectivity of synthesized imidazodiazepines and benzodiazepines at GABAA receptors by using molecular docking studies” (Bioorg Med Chem Lett, 2022)

Legend:
[1] = target: T1, GABA A receptor alpha-3/beta-2/gamma-2 (Homo sapiens, UniProt P18507+P34903+P47870); assay: Displacement of [3H]flunitrazepam from human recombinant alpha3beta2gamma2 GABAA receptor expressed in HEK cell membrane by competitive radioligand binding assay; type: cell membranes
T1 sequence (P47870 whole entry): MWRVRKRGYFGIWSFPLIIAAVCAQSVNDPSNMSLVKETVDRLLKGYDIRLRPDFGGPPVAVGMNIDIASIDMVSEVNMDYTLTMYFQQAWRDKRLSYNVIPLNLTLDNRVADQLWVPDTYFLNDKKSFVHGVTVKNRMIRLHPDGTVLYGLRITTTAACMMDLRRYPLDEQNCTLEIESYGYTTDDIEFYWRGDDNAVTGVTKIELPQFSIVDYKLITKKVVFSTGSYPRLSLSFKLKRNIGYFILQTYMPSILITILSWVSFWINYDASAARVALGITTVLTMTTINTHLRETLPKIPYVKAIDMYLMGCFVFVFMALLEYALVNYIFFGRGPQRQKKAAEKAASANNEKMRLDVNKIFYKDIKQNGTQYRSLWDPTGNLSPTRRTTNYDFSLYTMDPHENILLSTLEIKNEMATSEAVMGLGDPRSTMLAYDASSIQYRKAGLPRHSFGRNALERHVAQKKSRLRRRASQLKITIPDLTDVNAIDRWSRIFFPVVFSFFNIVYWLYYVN
T1 sequence (P18507 whole entry): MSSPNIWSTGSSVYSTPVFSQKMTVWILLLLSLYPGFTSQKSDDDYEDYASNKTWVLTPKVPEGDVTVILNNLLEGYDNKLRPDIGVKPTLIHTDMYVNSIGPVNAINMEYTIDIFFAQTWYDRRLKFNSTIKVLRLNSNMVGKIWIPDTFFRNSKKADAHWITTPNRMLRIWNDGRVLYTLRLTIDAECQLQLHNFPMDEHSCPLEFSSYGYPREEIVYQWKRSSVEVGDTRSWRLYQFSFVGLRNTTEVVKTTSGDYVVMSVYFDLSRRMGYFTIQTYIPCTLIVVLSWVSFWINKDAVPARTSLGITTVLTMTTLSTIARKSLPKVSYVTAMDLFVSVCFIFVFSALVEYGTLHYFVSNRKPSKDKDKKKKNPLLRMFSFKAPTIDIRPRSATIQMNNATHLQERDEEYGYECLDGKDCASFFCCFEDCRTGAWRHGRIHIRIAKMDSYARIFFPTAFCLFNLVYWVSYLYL
T1 sequence (P34903 whole entry): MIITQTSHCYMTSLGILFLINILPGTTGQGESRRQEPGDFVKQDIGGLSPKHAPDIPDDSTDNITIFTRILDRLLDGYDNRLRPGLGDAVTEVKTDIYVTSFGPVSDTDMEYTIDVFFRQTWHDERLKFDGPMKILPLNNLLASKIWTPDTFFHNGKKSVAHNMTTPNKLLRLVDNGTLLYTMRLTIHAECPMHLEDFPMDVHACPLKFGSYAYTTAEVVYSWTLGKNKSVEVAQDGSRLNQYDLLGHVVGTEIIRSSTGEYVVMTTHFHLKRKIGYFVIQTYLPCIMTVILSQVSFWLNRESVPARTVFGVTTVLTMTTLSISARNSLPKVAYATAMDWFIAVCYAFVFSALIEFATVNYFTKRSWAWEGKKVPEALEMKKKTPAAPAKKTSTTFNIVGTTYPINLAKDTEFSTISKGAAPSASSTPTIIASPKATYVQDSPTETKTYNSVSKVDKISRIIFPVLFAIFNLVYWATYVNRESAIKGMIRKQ

[2] = target: T2, GABA-A receptor; alpha-1/beta-2/gamma-2 (Homo sapiens, UniProt P14867+P18507+P47870); assay: Displacement of [3H]flunitrazepam from human recombinant alpha1beta2gamma2 GABAA receptor expressed in HEK cell membrane by competitive radioligand binding assay; type: cell membranes
T2 sequence (P14867 whole entry): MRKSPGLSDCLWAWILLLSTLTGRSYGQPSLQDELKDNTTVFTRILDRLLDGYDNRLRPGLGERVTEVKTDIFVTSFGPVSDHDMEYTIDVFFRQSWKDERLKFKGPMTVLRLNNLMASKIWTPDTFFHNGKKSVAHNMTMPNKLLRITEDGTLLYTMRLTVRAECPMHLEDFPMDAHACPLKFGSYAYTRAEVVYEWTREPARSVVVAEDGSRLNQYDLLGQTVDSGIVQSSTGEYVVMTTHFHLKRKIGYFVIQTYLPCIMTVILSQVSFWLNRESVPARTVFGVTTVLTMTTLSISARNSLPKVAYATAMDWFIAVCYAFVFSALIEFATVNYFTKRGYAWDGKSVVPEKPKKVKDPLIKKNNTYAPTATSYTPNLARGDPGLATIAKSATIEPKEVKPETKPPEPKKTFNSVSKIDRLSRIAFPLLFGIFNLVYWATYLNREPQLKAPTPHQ
T2 sequence (P47870 whole entry): T1 sequence (P47870 whole entry)
T2 sequence (P18507 whole entry): T1 sequence (P18507 whole entry)

[3] = target: T3, GABA A receptor alpha-2/beta-2/gamma-2 (Homo sapiens, UniProt P18507+P47869+P47870); assay: Displacement of [3H]flunitrazepam from human recombinant alpha2beta2gamma2 GABAA receptor expressed in HEK cell membrane by competitive radioligand binding assay; type: cell membranes
T3 sequence (P47870 whole entry): T1 sequence (P47870 whole entry)
T3 sequence (P18507 whole entry): T1 sequence (P18507 whole entry)
T3 sequence (P47869 whole entry): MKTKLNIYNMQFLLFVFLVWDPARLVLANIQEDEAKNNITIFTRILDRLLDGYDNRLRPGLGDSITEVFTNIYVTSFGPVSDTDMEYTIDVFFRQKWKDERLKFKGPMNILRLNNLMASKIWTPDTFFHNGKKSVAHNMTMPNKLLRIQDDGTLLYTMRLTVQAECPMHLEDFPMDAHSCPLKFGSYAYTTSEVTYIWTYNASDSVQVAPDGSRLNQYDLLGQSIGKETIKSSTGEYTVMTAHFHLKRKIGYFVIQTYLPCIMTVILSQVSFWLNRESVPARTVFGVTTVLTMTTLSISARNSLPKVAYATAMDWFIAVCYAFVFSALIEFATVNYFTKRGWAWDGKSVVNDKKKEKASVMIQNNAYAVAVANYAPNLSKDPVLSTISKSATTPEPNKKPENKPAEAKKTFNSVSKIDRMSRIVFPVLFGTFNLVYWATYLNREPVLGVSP

[4] = target: T4, Gamma-aminobutyric acid receptor subunit alpha-5/beta-2/gamma-2 (Homo sapiens, UniProt P18507+P31644+P47870); assay: Displacement of [3H]flunitrazepam from human recombinant alpha5beta2gamma2 GABAA receptor expressed in HEK cell membrane by competitive radioligand binding assay; type: cell membranes
T4 sequence (P47870 whole entry): T1 sequence (P47870 whole entry)
T4 sequence (P18507 whole entry): T1 sequence (P18507 whole entry)
T4 sequence (P31644 whole entry): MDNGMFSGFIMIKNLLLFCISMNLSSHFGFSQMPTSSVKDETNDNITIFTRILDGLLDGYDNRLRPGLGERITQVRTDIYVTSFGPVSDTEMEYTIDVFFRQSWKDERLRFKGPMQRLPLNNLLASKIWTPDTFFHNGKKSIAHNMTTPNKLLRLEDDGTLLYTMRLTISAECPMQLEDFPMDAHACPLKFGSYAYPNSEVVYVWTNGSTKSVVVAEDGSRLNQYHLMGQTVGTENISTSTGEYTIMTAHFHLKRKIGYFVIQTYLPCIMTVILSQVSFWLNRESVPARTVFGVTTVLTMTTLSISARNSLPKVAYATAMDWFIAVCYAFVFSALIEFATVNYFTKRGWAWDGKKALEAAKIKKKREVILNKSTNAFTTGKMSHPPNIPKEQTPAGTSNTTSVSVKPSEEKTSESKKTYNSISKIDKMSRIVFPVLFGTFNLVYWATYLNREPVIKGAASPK

Homo sapiens = organism: Homo sapiens; assay: Selectivity ratio of Ki for human recombinant alpha1beta2gamma2 GABAA receptor expressed in HEK cell membrane to Ki for human recombinant alpha5beta2gamma2 GABAA receptor expressed in HEK cell membrane; type: cell-based

SMILES	Ki [1]	Ki [2]	Ki [3]	Ki [4]	Ratio Ki (Homo sapiens)
O=C1CN=C(c2ccccc2Cl)c2cc(Br)ccc2N1 [PHENAZEPAM]	0.12 nM	0.05 nM	0.06 nM	0.68 nM	–
Cc1nnc2n1-c1ccc(Br)cc1C(c1ccccn1)=NC2	5.1 nM	7.3 nM	6.1 nM	7.7 nM	–
C#Cc1ccc2c(c1)C(c1ccccc1)=N[C@@H](C)c1nnc(C)n1-2	20.9 nM	107 nM	50.1 nM	8.1 nM	13
Cc1nnc2n1-c1ccc(Br)cc1C(c1ccccc1Cl)=NC2	0.6 nM	0.5 nM	1 nM	0.4 nM	–
C#Cc1ccc2c(c1)C(c1ccccn1)=NCc1nnc(C)n1-2	104 nM	144 nM	81.3 nM	45.6 nM	–
Cc1nnc2n1-c1ccc(Br)cc1C(c1ccccc1)=NC2	–	2.8 nM	0.7 nM	0.6 nM	–
C#Cc1ccc2c(c1)C(c1ccccc1Cl)=NCc1nnc(C)n1-2	1.9 nM	3.3 nM	0.6 nM	4.4 nM	–
CN1C(=O)CN=C(c2ccccc2)c2cc(Br)ccc21	31 nM	9.4 nM	9.3 nM	7.7 nM	–
C#Cc1ccc2c(c1)C(c1ccccc1F)=NCC(=O)N2C	3.4 nM	3.9 nM	1.2 nM	0.8 nM	–
C[C@H]1N=C(c2ccccc2)c2cc(Br)ccc2NC1=O	> 3000 nM	> 3000 nM	> 3000 nM	> 3000 nM	–
C[C@@H]1N=C(c2ccccc2)c2cc(Br)ccc2NC1=O	19.1 nM	14.4 nM	11 nM	1.89 nM	7
O=C1CN=C(c2ccccc2F)c2cc(Br)ccc2N1	0.28 nM	0.26 nM	0.15 nM	0.26 nM	–
C#Cc1ccc2c(c1)C(c1ccccc1Cl)=NCC(=O)N2C	–	1.6 nM	0.99 nM	1.96 nM	–
O=C1CN=C(c2ccccc2)c2ccccc2N1 [RO-052921]	350 nM	288 nM	233 nM	140 nM	2
Cc1nnc2n1-c1ccc(Cl)cc1C(c1ccccc1)=NC2 [ALPRAZOLAM]	1.4 nM	0.8 nM	0.6 nM	1.5 nM	–
C#Cc1ccc2c(c1)C(c1ccccc1F)=NCc1nnc(C)n1-2	–	6.3 nM	2.1 nM	0.6 nM	–
C#Cc1ccc2c(c1)C(c1ccccc1)=NCC(=O)N2C	47.4 nM	76.3 nM	42.1 nM	6.8 nM	11
CN1C(=O)CN=C(c2ccccc2)c2ccccc21	318 nM	81 nM	138 nM	98 nM	–
C#Cc1ccc2c(c1)C(c1ccccc1)=NCc1nnc(C)n1-2	–	36.4 nM	25.8 nM	5.3 nM	6
